Laboratory results reported in patent US20060009357A1, “Azo dye, ink jet recording ink, heat sensitive recording material, color toner, color filter, ink jet recording method, ink cartridge and ink jet printer” (FUJI PHOTO FILM CO., LTD., priority 2004, published 2006).

What was measured:
[1] = Light fastness of recorded image (xenon light, weatherometer); format: physicochemical; set-up: key: An image having a dye retention of 80% or higher at every measuring point was graded A; An image having a dye retention lower than 80% at one or two out of three points was graded B; An image having a dye retention lower than 80% at every point was graded C; details: dye retention after xenon light 85,000 lux for 7 days; initial densities 1, 1.5, 2.0; Super Photo Grade paper
Method: An image was recorded on photo glossy paper (Super Photo Grade, available from Fuji Photo Film Co., Ltd.) on ink jet printer (PM-770C, available from Seiko Epson Corp.) by using each of ink liquids A to I. The resulting image was evaluated for hue, light fastness, and ozone resistance as follows.
As to light fastness, the image density immediately after recording (initial density: Ci) was measured with a reflection densitometer X-Rite 310TR. After the image was exposed to xenon light (85,000 lux) for 7 days in a weatherometer (Atlas C.65, from Atlas Electric Devices Co.), the image density (Cf) was measured again at three points whose initial densities were 1, 1.5, and 2.0. A dye retention (%) was calculated from equation: Dye retention (%)=[…]
An image having a dye retention of 80% or higher at every measuring point was graded A. An image having a dye retention lower than 80% at one or two out of three points was graded B. An image having a dye retention lower than 80% at every point was graded C.

[2] = Ozone resistance of recorded image (ozone gas chamber); format: physicochemical; details: dye retention after ozone gas 5 ppm for 24 hours; three density points; Super Photo Grade paper
Method: An image was recorded on photo glossy paper (Super Photo Grade, available from Fuji Photo Film Co., Ltd.) on ink jet printer (PM-770C, available from Seiko Epson Corp.) by using each of ink liquids A to I. The resulting image was evaluated for hue, light fastness, and ozone resistance as follows. As to ozone resistance, the recorded image was left to stand in a chamber having an ozone gas concentration of 5 ppm for 24 hours. A dye retention after exposure to ozone was obtained in the same manner as for evaluation of light fastness. The ozone concentration in the chamber was set with an ozone gas monitor (OZG-EM-01, available from […] Co., Ltd.). An image having a dye retention of 70% or higher at every measuring point was graded A. An image having a dye retention lower than 70% at one or two out of three points was graded B. An image having a dye retention lower than 70% at every point was graded C.

SMILES	Light Fastness [1]	Ozone fastness [2]
Cn1c(=O)cc2c3c(c(Nc4ccc(Nc5nc(O)nc(Nc6cc(S(=O)(=O)[O-])ccc6S(=O)(=O)O)n5)cc4S(=O)(=O)O)ccc31)C(=O)c1ccccc1-2.[Na+] [h-2]	B	C (An image having a dye retention lower than 70% at every point was graded C)
O=C(O)c1ccccc1/N=N/c1c(S(=O)(=O)O)cc2cc(S(=O)(=O)[O-])cc(Nc3nc(O)nc(Nc4ccccc4C(=O)O)n3)c2c1O.[Na+] [h-3]	C (An image having a dye retention lower than 80% at every point was graded C)	C (An image having a dye retention lower than 70% at every point was graded C)
